Source: US11247987B2, “Inhibiting ubiquitin specific peptidase 30” (FORMA Therapeutics, Inc., priority 2017, dated 2022)
pIC50: −log10 of the molar value.

Biological target: T1, human recombinant USP30 (Homo sapiens, UniProt Q70CQ3)
T1 construct: purchased Boston Biochem E-582
T1 sequence (Q70CQ3 1-517): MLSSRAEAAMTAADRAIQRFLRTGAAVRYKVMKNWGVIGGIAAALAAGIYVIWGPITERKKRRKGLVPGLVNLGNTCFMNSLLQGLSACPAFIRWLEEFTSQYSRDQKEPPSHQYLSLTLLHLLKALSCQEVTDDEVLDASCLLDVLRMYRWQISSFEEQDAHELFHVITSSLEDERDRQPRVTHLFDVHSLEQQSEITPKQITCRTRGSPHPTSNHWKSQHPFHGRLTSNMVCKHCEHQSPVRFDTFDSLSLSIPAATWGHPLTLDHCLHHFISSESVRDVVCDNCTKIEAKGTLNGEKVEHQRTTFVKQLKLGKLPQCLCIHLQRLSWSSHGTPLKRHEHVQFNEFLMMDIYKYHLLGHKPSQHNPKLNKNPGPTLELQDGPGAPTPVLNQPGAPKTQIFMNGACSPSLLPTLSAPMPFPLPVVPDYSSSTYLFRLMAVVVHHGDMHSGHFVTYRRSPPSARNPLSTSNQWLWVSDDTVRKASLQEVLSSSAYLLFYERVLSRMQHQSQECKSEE
Experiment: Ubiquitin-Rhodamine 110 Assay for USP30 Activity (USP30 Inhibitor Biochemical Assay)
Conditions: 0.2 nM USP30, 25 nM Ub-Rh110, 30 min preincubation, 30 min at room temperature; read-out: USP30 potency range (USP30 biochemical IC50 assay, IC50 ranges)
Protocol: Example A: Biochemical Assay: Ubiquitin-Rhodamine 110 Assay for USP30 Activity (USP30 Inhibitor Biochemical Assay)
The assay was performed in a final volume of 9 μL in assay buffer containing 20 mM Tris-HCl (pH 8.0, (1M Tris-HCl, pH 8.0 solution; Corning 46-031-CM)), 1 mM GSH (L-glutathione reduced, Sigma-Aldrich, G4251-100G), 0.03% BGG (0.22 μM filtered, Sigma, G7516-25G), and 0.01% Triton X-100 (Sigma, T9284-10L). Nanoliter quantities of 10-point, 3-fold serial dilution in DMSO were pre-dispensed into 1536 assay plates (Corning, #3724BC) for a final test concentration of 25 μM to 1.3 nM, top to lowest dose, respectively. Concentration and incubation times were optimized for the maximal signal-to-background while maintaining initial velocity conditions at a fixed substrate concentration. The final concentration of USP30 (human recombinant USP30, Boston Biochem, cat. # E-582) in the assay was 0.2 nM. […] 3 μL of 2×USP30 was added to assay plates (pre-stamped with compound), preincubated for 30 minutes and then treated with 3 μL of 2×Ub-Rh110. Plates were incubated for 30 minutes at room temperature before addition of 3 μL of stop solution (final concentration of 10 mM citric acid (Sigma, 251275-500G)). Fluorescence was read on the Envision (excitation at 485 nm and emission at 535 nm; Perkin Elmer) or on the PheraSTAR (excitation at 485 nm and emission at 535 nm; BMG Labtech).
For all assay formats data were reported as percent inhibition compared with control wells based on the following equation: % inh=1−((FLU−AveLow)/(AveHigh−AveLow)) where FLU=measured Fluorescence, AveLow=average Fluorescence of no enzyme control (n=16), and AveHigh=average Fluorescence of DMSO control (n=16). IC50 values were determined by curve fitting of the standard 4 parameter logistic fitting algorithm included in the Activity Base software package: IDBS XE Designer Model205. Data is fitted using the Levenburg Marquardt algorithm.

First: N#CN[C@H]1C[C@H](C(=O)Nc2ncc([C@@H]3CC4CCC3CC4)s2)C1 [Compound 1-37, (1r,3r)-N-{5-[(2R)-bicyclo[2.2.2]octan-2-yl]-1,3-thiazol-2-yl}-3-(cyanoamino)cyclo-butane-1-carboxamide]
Second: N#CN[C@H]1C[C@H](C(=O)Nc2ncc([C@H]3CC4CCC3CC4)s2)C1 [Compound 1-38, (1r,3r)-N-{5-[(2S)-bicyclo[2.2.2]octan-2-yl]-1,3-thiazol-2-yl}-3-(cyanoamino)cyclo-butane-1-carboxamide]
The pIC50 of the first is higher: greater than 7.00 for the first, 6.00 to 7.00 for the second. The first is the more potent here.

First: N#CN[C@H]1C[C@H](C(=O)Nc2cc(C(F)(F)F)ccn2)C1 [Compound 1-27, (1r,3r)-3-(cyanoamino)-N-[4-(trifluoro-methyl)pyridin-2-yl]cyclobutane-1-carboxamide]
Second: N#CN[C@H]1C[C@@H](C(=O)Nc2ccn(-c3ccccc3)n2)C1 [Compound 5-2, cis-3-(cyanoamino)-N-(1-phenyl-1H-pyrazol-3-yl)cyclobutane-1-carboxamide]
The pIC50 of the first is higher: 6.00 to 7.00 for the first, 4.60 to 5.00 for the second.

`Cn1nc(NC(=O)[C@H]2C[C@H](NC#N)C2)cc1C1CCCCC1` [Compound 1-30, (1r,3r)-3-(cyanoamino)-N-(5-cyclohexyl-1-methyl-1H-pyrazol-3-yl)cyclobutane-1-carboxamide] and `Cn1nc(C2CCCCC2)cc1NC(=O)[C@H]1C[C@H](NC#N)C1` [Compound 1-6, (1r,3r)-3-(cyanoamino)-N-(3-cyclohexyl-1-methyl-1H-pyrazol-5-yl)cyclobutane-1-carboxamide] fall in the same range of pIC50: 6.00 to 7.00 for the first, 6.00 to 7.00 for the second.

`CO[C@]1(C(=O)Nc2nc(Cl)c(C(C)(C)C)s2)C[C@@H](NC#N)C1` [Compound 8-1, N-(5-tert-butyl-4-chloro-1,3-thiazol-2-yl)-3-(cyanoamino)-1-methoxycyclobutane-1-carboxamide] and `CC(C)(C)c1sc(N2CC[C@]3(C[C@H](NC#N)C3)C2=O)nc1Cl` (single isomer, unassigned) [Compound 7-1, ([(2r,4s)-6-(5-tert-butyl-4-chloro-1,3-thiazol-2-yl)-5-oxo-6-azaspiro[3.4]octan-2-yl]amino)carbonitrile] cannot be ordered by pIC50: greater than 7.00 for the first, greater than 7.00 for the second.

`N#CN[C@H]1C[C@H](C(=O)Nc2nc3cccc(OC4CCC4)c3s2)C1` [Compound 1-64, (1r,3r)-3-(cyanoamino)-N-(7-cyclobutoxy-1,3-benzothiazol-2-yl)cyclobutane-1-carboxamide] and `N#CN[C@H]1C[C@](F)(C(=O)Nc2nc3cccc(OC4CCC4)c3s2)C1` [Compound 1-66, (1s,3s)-3-(cyanoamino)-N-(7-cyclobutoxy-1,3-benzothiazol-2-yl)-1-fluorocyclobutane-1-carboxamide] fall in the same range of pIC50: 6.00 to 7.00 for the first, 6.00 to 7.00 for the second.

`N#CN[C@H]1CCC[C@H]1C(=O)Nc1ncc(C2CCCCC2)s1` [Compound 10-7, (1R,2S)-2-(cyanoamino)-N-(5-cyclohexyl-1,3-thiazol-2-yl)cyclopentane-1-carboxamide] and `N#CN[C@H]1CCC[C@@H]1C(=O)Nc1ncc(C2CCCCC2)s1` [Compound 10-9, (1S,2S)-2-(cyanoamino)-N-(5-cyclohexyl-1,3-thiazol-2-yl)cyclopentane-1-carboxamide] fall in the same range of pIC50: 5.00 to 6.00 for the first, 5.00 to 6.00 for the second.

First: N#CN[C@H]1CC[C@H](C(=O)N2CCN(c3ccccc3)CC2)C1 [Compound 12-6, {[(1S,3S)-3-(4-phenylpiperazine-1-carbonyl)cyclopentyl]amino}carbonitrile]
Second: N#CN[C@H]1C[C@@H](C(=O)Nc2ncc(-c3ccccc3)s2)C1 [Compound 5-4, cis-3-(cyanoamino)-N-(5-phenyl-1,3-thiazol-2-yl)cyclobutane-1-carboxamide]
The pIC50 of the first is lower: less than 4.60 for the first, 5.00 to 6.00 for the second.

`N#CN[C@H]1CC[C@@H](C(=O)Nc2ncc(C3CCCCC3)s2)CC1` [Compound 10-1, cis-4-(cyanoamino)-N-(5-cyclohexyl-1,3-thiazol-2-yl)cyclohexane-1-carboxamide] and `N#CN[C@H]1C[C@H](C(=O)Nc2ncc(C3CCCCC3)s2)C1` [Compound 5-7, trans-3-(cyanoamino)-N-(5-cyclohexyl-1,3-thiazol-2-yl)cyclobutane-1-carboxamide] fall in the same range of pIC50: 6.00 to 7.00 for the first, 6.00 to 7.00 for the second.

First: CC(C)(C)c1cnc(NC(=O)[C@H]2C[C@@H](NC#N)C2)s1 [Compound 5-10, cis-N-(5-tert-butyl-1,3-thiazol-2-yl)-3-(cyanoamino)cyclobutane-1-carboxamide]
Second: CC(C)(C)c1cnc(NC(=O)[C@H]2C[C@H](NC#N)C2)s1 [Compound 5-13, trans-N-(5-tert-butyl-1,3-thiazol-2-yl)-3-(cyanoamino)cyclobutane-1-carboxamide]
The pIC50 of the first is lower: 4.60 to 5.00 for the first, 6.00 to 7.00 for the second.

First: Cn1nc(-c2ccccc2)cc1NC(=O)[C@H]1C[C@H](NC#N)C1 [Compound 1-2, (1r,3r)-3-(cyanoamino)-N-(1-methyl-3-phenyl-1H-pyrazol-5-yl)cyclobutane-1-carboxamide]
Second: N#CN[C@H]1C[C@H](C(=O)Nc2ncc(-c3ccccc3)s2)C1 [Compound 5-8, trans-3-(cyanoamino)-N-(5-phenyl-1,3-thiazol-2-yl)cyclobutane-1-carboxamide]
The pIC50 of the first is higher: 6.00 to 7.00 for the first, 5.00 to 6.00 for the second. The first is the more potent here.

Compared with `N#CNC1CCN(C(=O)c2csc(-c3ccc(Cl)cc3Cl)n2)CC1` [Compound 12-9, ({1-[2-(2,4-dichlorophenyl)-1,3-thiazole-4-carbonyl]piperidin-4-yl}amino)carbonitrile], `N#CN[C@H]1C[C@H](C(=O)Nc2cc(-c3cccc(Cl)c3)no2)C1` [Compound 1-41, (1r,3r)-N-[3-(3-chlorophenyl)-1,2-oxazol-5-yl]-3-(cyanoamino)cyclo-butane-1-carboxamide] is higher in pIC50: 5.00 to 6.00 for the first, 6.00 to 7.00 for the second. The second is the more potent here.

`C[C@]1(C(=O)Nc2cnc(C3CCCCC3)s2)C[C@H](NC#N)C1` [Compound 1-11, (1r,3s)-3-(cyanoamino)-N-(2-cyclohexyl-1,3-thiazol-5-yl)-1-methylcyclobutane-1-carboxamide] and `N#CN[C@H]1C[C@H](C(=O)Nc2cnc(C3CCCCC3)s2)C1` [Compound 1-3, (1r,3r)-3-(cyanoamino)-N-(2-cyclohexyl-1,3-thiazol-5-yl)cyclobutane-1-carboxamide] cannot be ordered by pIC50: greater than 7.00 for the first, greater than 7.00 for the second.

`N#CN[C@H]1CC[C@H](C(=O)Nc2ncc(C3CCOCC3)s2)C1` [Compound 10-10, (1S,3S)-3-(cyanoamino)-N-[5-(oxan-4-yl)-1,3-thiazol-2-yl]cyclopentane-1-carboxamide] and `N#CN[C@H]1C[C@H](C(=O)Nc2ncc(C3CCOCC3)s2)C1` [Compound 1-1, trans-3-(cyanoamino)-N-[5-(oxan-4-yl)-1,3-thiazol-2-yl]cyclobutane-1-carboxamide] fall in the same range of pIC50: 5.00 to 6.00 for the first, 5.00 to 6.00 for the second.

`CN(c1nc(Cl)c(C2CCCCC2)s1)C(=O)[C@H]1C[C@H](NC#N)C1` [Compound 1-49, (1r,3r)-N-(4-chloro-5-cyclohexyl-1,3-thiazol-2-yl)-3-(cyanoamino)-N-methylclycobutane-1-carboxamide] and `N#CN[C@H]1C[C@@](F)(C(=O)Nc2nc(Cl)c(C3CCCCC3)s2)C1` [Compound 1-48, (1r,3r)-N-(4-chloro-5-cyclohexyl-1,3-thiazol-2-yl)-3-(cyanoamino)-1-fluorocyclobutane-1-carboxamide] cannot be ordered by pIC50: greater than 7.00 for the first, greater than 7.00 for the second.

First: N#CN[C@H]1C[C@H](C(=O)Nc2ncc(C3CCCCC3)o2)C1 [Compound 1-53, (1r,3r)-3-(cyanoamino)-N-(5-cyclohexyl-1,3-oxazol-2-yl)cyclobutane-1-carboxamide]
Second: C[C@@H]1CCCC[C@H]1c1cnc(NC(=O)[C@H]2C[C@H](NC#N)C2)s1 [Compound 1-24, (1r,3r)-3-(cyanoamino)-N-{5-[(1R,2R)-2-methylcyclohexyl]-1,3-thiazol-2-yl}cyclobutane-1-carboxamide]
The pIC50 of the first is lower: 6.00 to 7.00 for the first, greater than 7.00 for the second. The second is the more potent here.

With `CC1(C)CCCC[C@H]1c1ncc(NC(=O)[C@H]2C[C@H](NC#N)C2)s1` (single isomer, unassigned) [Compound 1-13] the pIC50 was 6.00 to 7.00.
